Assay results published in patent US20240269317A1, “TARGETED ENCAPSULATION STRATEGIES FOR TREATMENT MODALITIES” (NUTARIA LTD., priority 2021, published 2024).

Experiments:
[1] = target: T1, PPARγ (Homo sapiens, UniProt P37231); conditions: classified by ability to inhibit rosiglitazone-induced cellular responses; cited from earlier work
T1 sequence (P37231 1-505): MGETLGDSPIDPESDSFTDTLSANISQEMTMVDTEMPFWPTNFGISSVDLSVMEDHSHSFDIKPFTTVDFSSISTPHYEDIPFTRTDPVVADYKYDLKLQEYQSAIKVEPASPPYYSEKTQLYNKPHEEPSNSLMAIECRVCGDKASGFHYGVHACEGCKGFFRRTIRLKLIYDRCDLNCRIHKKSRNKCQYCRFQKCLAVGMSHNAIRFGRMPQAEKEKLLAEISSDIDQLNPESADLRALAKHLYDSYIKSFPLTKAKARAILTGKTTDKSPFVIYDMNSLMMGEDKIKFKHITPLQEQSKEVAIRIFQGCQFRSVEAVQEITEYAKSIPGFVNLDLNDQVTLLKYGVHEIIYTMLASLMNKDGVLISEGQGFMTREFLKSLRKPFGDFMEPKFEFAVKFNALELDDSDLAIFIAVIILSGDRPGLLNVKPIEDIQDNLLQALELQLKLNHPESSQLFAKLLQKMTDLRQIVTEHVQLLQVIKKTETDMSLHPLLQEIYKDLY

[2] = tested on: nuclear transcription factor κB (NF-κB) activation; conditions: cited from earlier work; for activation of IRAK-1, IKK-β, NF-κB, and MAP kinases (ERK, JNK, and p-38): LPS-stimulated murine peritoneal macrophages; for NF-κB activation: lipopolysaccharide (LPS)-stimulated murine peritoneal macrophages
[3] = tested on: Human Neuroblastoma cells (SH Sy5Y cells cell line); experiment: in-vitro curcumin delivery experiment (curcumin fluorescence); assay type: cell-based; conditions: after 3.5 hours of treatment, relative to the 1 hour time point
From the text: FIGS. 5a-b depict different time points of the same experiment. […] This effect might be due to intra-cellular metabolism of the curcumin present in the SLN 10+Caffeine 13 sample.

[4] = target: T2, cyclooxygenase-2 (COX-2) (Homo sapiens, UniProt P35354); conditions: cited from earlier work
T2 sequence (P35354 18-604): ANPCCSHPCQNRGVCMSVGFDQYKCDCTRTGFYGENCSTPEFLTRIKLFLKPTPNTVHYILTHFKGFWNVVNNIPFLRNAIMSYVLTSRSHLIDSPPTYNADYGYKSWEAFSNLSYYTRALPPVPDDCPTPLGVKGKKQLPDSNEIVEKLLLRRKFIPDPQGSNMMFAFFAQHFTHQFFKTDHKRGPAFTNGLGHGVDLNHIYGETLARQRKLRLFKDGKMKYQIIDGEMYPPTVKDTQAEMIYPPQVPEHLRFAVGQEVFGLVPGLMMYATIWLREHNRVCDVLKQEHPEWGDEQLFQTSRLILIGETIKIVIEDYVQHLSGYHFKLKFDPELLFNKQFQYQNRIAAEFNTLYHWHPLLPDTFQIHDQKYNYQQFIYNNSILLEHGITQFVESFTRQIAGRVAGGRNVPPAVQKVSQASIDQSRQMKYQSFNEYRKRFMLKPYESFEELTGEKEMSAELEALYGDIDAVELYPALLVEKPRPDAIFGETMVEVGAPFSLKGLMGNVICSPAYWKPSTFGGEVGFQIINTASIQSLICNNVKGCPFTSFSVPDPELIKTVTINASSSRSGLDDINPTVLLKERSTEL

Compound | PPARγ activity (agonist, antagonist or modulator) [1] | also measured
O=c1cc(-c2ccc(O)cc2)oc2cc(O)cc(O)c12 [apigenin] | modulators | –
COc1ccc(-c2coc3cc(O)cc(O)c3c2=O)cc1 [biochanin A] | agonist | –
CC(C)=CCC[C@](C)(O[C@@H]1O[C@H](CO)[C@@H](O)[C@H](O)[C@H]1O)[C@H]1CC[C@]2(C)[C@@H]1[C@H](O)C[C@@H]1[C@@]3(C)CC[C@H](O)C(C)(C)[C@@H]3CC[C@]12C [compound K] | – | activation of IRAK-1, IKK-β, NF-κB, and MAP kinases (ERK, JNK, and p-38) [2]: significantly inhibited; NF-κB activation [2]: inhibited
COc1cc(/C=C/C(=O)CC(=O)/C=C/c2ccc(O)c(OC)c2)ccc1O [curcumin] | – | curcumin fluorescence [3]: remained at the same levels
COc1ccc(-c2cc(=O)c3c(O)cc(O)cc3o2)cc1O [diosmetin] | antagonists | –
CC(C)=CCC[C@](C)(O[C@@H]1O[C@H](CO[C@@H]2O[C@H](CO)[C@@H](O)[C@H](O)[C@H]2O)[C@@H](O)[C@H](O)[C@H]1O)[C@H]1CC[C@]2(C)[C@@H]1[C@H](O)C[C@@H]1[C@@]3(C)CC[C@H](O[C@@H]4O[C@H](CO)[C@@H](O)[C@H](O)[C@H]4O[C@@H]4O[C@H](CO)[C@@H](O)[C@H](O)[C@H]4O)C(C)(C)[C@@H]3CC[C@]12C [ginsenoside Rb1] | – | activation of IRAK-1, IKK-β, NF-κB, and MAP kinases (ERK, JNK, and p-38) [2]: significantly inhibited; NF-κB activation [2]: inhibited
O=c1cc(-c2ccc(O)c(O)c2)oc2cc(O)cc(O)c12 [luteolin] | antagonists | –
O=C1C[C@@H](c2ccc(O)cc2)Oc2cc(O)cc(O)c21 [naringenin] | modulators | –
O=c1c(O)c(-c2ccc(O)c(O)c2)oc2cc(O)cc(O)c12 [quercetin] | antagonists | –
O=C(/C=C/c1ccc(O)c(O)c1)O[C@H](Cc1ccc(O)c(O)c1)C(=O)O [rosmarinic acid] | antagonists | –
C-phycocyanin | – | IC50 COX-2/IC50 COX-1 ratio [4]: 0.04
